Experimental findings from patent publication US6420406B1, “Triazolyl disulphides” (Bayer Aktiengesellschaft, priority 1996, dated 2002) are described below.

Assay type in all cases: in vivo
Test [1] has as its system Erysiphe graminis f.sp. hordei. Nature of the test: Erysiphe test (barley)/curative. The conditions noted are these: curative, sprayed 48 hours after inoculation, application rate 250 g/ha, evaluation 7 days after inoculation, 100% = no infection. As for the experimental part: Erysiphe Test (barley)/curative Solvent: 10 parts by weight of N-methyl-pyrrolidone Emulsifier: 0.6 parts by weight of alkylaryl polyglycol ether To product a suitable preparation of active compound 1 part by weight of active compound is mixed with the stated amounts of solvent and emulsifier, and the concentrate is diluted with water to the desired concentration. To test for curative activity, young plants are dusted with spores of Erysiphe graminis f.sp. hordei. 48 hours after the incubation, the plants are sprayed with the preparation of active compound at the stated application rate. The plants are placed in a greenhouse at a temperature of approximately 20° C. and a relative atmospheric humidity of approximately 80%, in order to promote the development of mildew pustules.

Test [2] deals with Erysiphe graminis f.sp. hordei. Nature of the test: Erysiphe test (barley)/protective. The note with it: protective, application rate 250 g/ha, evaluation 7 days after inoculation, 100% = no infection. The method, then:
(§1) Erysiphe test (barley)/protective Solvent: 10 parts by weight of N-methyl-pyrrolidone Emulsifier: 0.6 parts by weight of alkylaryl polyglycol ether To prepare a suitable preparation of active compound, 1 part by weight of active compound if mixed with the stated amounts of solvent and emulsifier, and the concentrate is diluted with water to the desired concentration. To test for protective activity, young plants are sprayed with the preparation of active compound at the stated application rate. After the spray coating has dried on, the plants are dusted with spores of Erysiphe graminis f.sp. hordei. The plants are placed in a greenhouse at a temperature of approximately 20° C. and a relative atmospheric humidity of approximately 80%, in order to promote the development of mildew pustules.

Test [3] deals with Erysiphe graminis f.sp. tritci. Nature of the test: Erysiphe test (wheat)/protective. The note with it: protective, application rate 250 g/ha, evaluation 7 days after inoculation, 100% = no infection. As for the experimental part:
as §1, with “test (wheat)/protective” for “test (barley)/protective”, “compound is” for “compound if”, “graminis […].” for “graminis f.sp. hordei.”

For another test, the system named is Fusarium graminearum. The conditions noted are these: barley, protective, application rate 250 g/ha, evaluation 4 days after inoculation; 100% = no infection.
In test [4] the test system is W strain of Pseudocercosporella herpotrichoides. Nature of the test: Pseudocercosporella herpotrichoides test; W strain (wheat)/protective. The conditions noted are these: protective, application rate 250 g/ha, evaluation 21 days after inoculation, 100% = no infection. As for the experimental part:
Pseudocercosporella herpotrichoides test; W strain (wheat/protective Solvent: 10 parts by weight of N-methyl-pyrrolidone Emulsifier: 0.6 part by weight of alkylaryl polyglycol ether To product a suitable preparation of active compound, 1 part by weight of active compound is mixed with the stated amounts of solvent and emulsifier, and the concentrate is diluted with water to the desired concentration. To test for protective activity, young plants are sprayed with the preparation of active compound at the stated application rate. After the spray coating has dried on, the plants are inoculated at the base of the stem with spores of the W strain of Pseudocercosporella herpotrichoides. The plants are placed in a greenhouse at a temperature of approximately 10° C. and a relative atmospheric humidity of approximately 80%.

Another test relates to Puccinia recondita. Nature of the test: Puccinia test (wheat)/curative. The note with it: curative, sprayed 48 hours after inoculation, application rate 250 g/ha, evaluation 10 days after inoculation, 100% = no infection. The method, then:
Puccinia test (wheat/curative Solvent: 10 parts by weight of N-methyl-pyrrolidone Emulsifier: 0.6 part by weight of alkylaryl polyglycol ether To product a suitable preparation of active compound, 1 part by weight of active compound is mixed with the stated amounts of solvent and emulsifier, and the concentrate is diluted with water to the desired concentration. […] 48 hours after the inoculation the plants are sprayed with the preparation of active compound at the stated application rate. The plants are placed in a greenhouse at a temperature of approximately 20° C. and a relative atmospheric humidity of approximately 80%, in order to promote the development of rust pustules.

Another test concerns Sphaerotheca fuliginea. Nature of the test: Sphaerotheca test (cucumber)/protective. The conditions noted are these: protective, application rate 50 g/ha, evaluation 10 days after inoculation, 100% = no infection. The method, then: (§2) Sphaerotheca test (cucumber/protective Solvent: 47 parts by weight of acetone Emulsifier: 3 parts by weight of alkylaryl polyglycol ether To produce a suitable preparation of active compound, 1 part by weight of active compound is mixed with the stated amounts of solvent and emulsifier, and the concentrate is diluted with water to the desired concentration. To test for protective activity, young plants are sprayed with the preparation of active compound at the stated application rate. After the spray coating has dried on, the plants are inoculated with an aqueous spore suspension of Sphaerotheca fuliginea. The plants are subsequently placed in a greenhouse at 23 to 24° C. and at a relative atmospheric humidity of approximately 75%.

Another test has as its system Podosphaera leucotricha. Nature of the test: Podosphaera test (apple)/protective. The conditions noted are these: protective, application rate 50 g/ha, evaluation 10 days after inoculation, 100% = no infection. As for the experimental part:
as §2, with “Podosphaera” for “Sphaerotheca”, “(apple)/protective” for “(cucumber/protective”, “product” for “produce”, “the causative organism of apple mildew Podosphaera leucotricha.” for “Sphaerotheca fuliginea.”, “then” for “subsequently”, “23°” for “23 to 24°”

A further test deals with Venturia inaequalis. Nature of the test: Venturia test (apple)/protective. The conditions noted are these: protective, application rate 50 g/ha, evaluation 12 days after inoculation, 100% = no infection. The method, then: Venturia test (apple)/protective Solvent: 47 parts by weight of acetone Emulsifier: 3 parts by weight of alkylaryl polyglycol ether To produce a suitable preparation of active compound, 1 part by weight of active compound is mixed with the stated amounts of solvent and emulsifier, and the concentrate is diluted with water to the desired concentration. To test for protective activity, young plants are sprayed with the preparation of active compound at the stated application rate. After the spray coating has dried on, the plants are inoculated with an aqueous conidia suspension of the causative organism of apple scab Venturia inaequalis and then remain placed at 20° C. and a relative atmospheric humidity of approximately 70% for 1 day. The plants are then placed in a greenhouse at 20° C. and at a relative atmospheric humidity of approximately 70%.

Turning to `OC(Cc1ccccc1Cl)(Cn1ncnc1SSc1ncnn1CC(O)(Cc1ccccc1Cl)C1(Cl)CC1)C1(Cl)CC1` (centres unmarked) [Example I-1, di-{1-[2-(1-chlorocyclopropyl)-3-(2-chloro-phenyl)-2-hydroxy-propyl-1]-1,2,4-triazol-5-yl} disulphide], the Efficacy in % (in [1]; in [2]; in test [3]; with Fusarium graminearum; in test [4]; with Puccinia recondita) was 100% each time. Also, the Efficacy in % in the test with Sphaerotheca fuliginea, with Podosphaera leucotricha and in the test with Venturia inaequalis was 100% in each case.

Turning to `Fc1ccc(C2(Cn3ncnc3SSc3ncnn3CC3(c4ccc(F)cc4)OC3c3ccccc3Cl)OC2c2ccccc2Cl)cc1` (centres unmarked) [Example I-2], the Efficacy in % in the test on Sphaerotheca fuliginea amounted to 92%; with Podosphaera leucotricha, 96%.
